Measured values reported in US9751861B2, “N1-(3,3,3-trifluoro-2-hydroxo-2-methylpropionyl)-piperidine derivatives as inhibitors of pyruvate dehydrogenase kinase” (MERCK PATENT GMBH, priority 2013, dated 2017).

Assays:
[1] = molecular target: T1, human PDHK2 (12-407) (Homo sapiens, UniProt Q15119); assay: Isothermal titration calorimetry (ITC) binding; conditions: 30° C., pH 7.5
T1 construct: The human PDHK2 (12-407) was produced in E. coli; His-tag (cleaved yes); made in house; host or cells: E. coli
How it was run: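 Untagged PDHK2 (12-407) from E. coli at 50 μM titrated into 5 μM compound at 30° C in pH 7.5 HEPES/KCl/MgCl2/phosphate buffer, ≤1% DMSO. One-site fit gave KA, ΔH^obs and N after heat-of-dilution correction; protein concentration referenced to a standard inhibitor and compound concentration adjusted to 1:1 stoichiometry.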

[2] = molecular target: T2, PDHK2 (Homo sapiens, UniProt Q15119); assay: Biochemical activity testing of PDHK2: PDC inactivation assay; conditions: human rec PDHK2, PDC from porcine heart, ATP 5 μM; read-out: IC50 PDHK2 (enzyme assay)
T2 construct: purchased Carna Bioscience
How it was run: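 Human recombinant PDHK2 (137 nM final) preincubated 30 min at RT with porcine heart PDC (20 mU/ml) and compound in pH 7.0 phosphate buffer, then phosphorylated with 5 μM ATP for 30 min at 37 °C. Residual PDC activity read as NADH fluorescence increase (Ex 340/Em 450) over 45 min; inhibitor-free reaction as full value, 3 mM DCA as zero, IC50 derived.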

[3] = system: PDH-Elalpha (pSer300); assay: Cellular immunofluorescence assay in HEK293T cells; assay type: cell-based; conditions: Homo sapiens, HEK-293T, 5 hours incubation, anti-PDH-E1alpha pSer300 immunofluorescence, read-out: IC50 (cell data)
How it was run: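 HEK293T cells were exposed to compound for 5 hours, then fixed, permeabilised and immunostained for PDH-Elalpha pSer300 with Hoechst counterstain, read by laser scanning cytometry. Percent effect was normalized to a pharmacological inhibitor control and fitted to dose-response curves.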

Question: Which results are given for C[C@@H]1CN(C(=O)[C@@](C)(O)C(F)(F)F)CC[C@@H]1c1ccnn1-c1ccc(F)cn1 [Compound A118, (R)-3,3,3-Trifluoro-1-{(3S,4S)-4-[2-(5-fluoro-pyridin-2-yl)-2H-pyrazol-3-yl]-3-methyl-piperidin-1-yl}-2-hydroxy-2-methyl-propan-1-one]?
Answer: Kd [1]: < 0.3 µM; IC50 [2]: < 0.3 µM; IC50 [3]: 0.3 to 3 µM

Question: Which results are given for C[C@@H]1CN(C(=O)[C@@](C)(O)C(F)(F)F)CC[C@@H]1c1ccnn1-c1ccc(Cl)cc1 [Compound A119, (R)-1-{(3S,4S)-4-[2-(4-Chloro-phenyl)-2H-pyrazol-3-yl]-3-methyl-piperidin-1-yl}-3,3,3-trifluoro-2-hydroxy-2-methyl-propan-1-one]?
Answer: Kd [1]: < 0.3 µM; IC50 [2]: < 0.3 µM; IC50 [3]: < 0.3 µM

Question: How did the Kd [1] turn out when C[C@@H]1CN(C(=O)[C@@](C)(O)C(F)(F)F)CC[C@@H]1c1ccnn1[C@H]1CC[C@@H](O)CC1 [Compound A120, (R)-3,3,3-Trifluoro-2-hydroxy-1-{(3S,4S)-4-[2-(4-hydroxy-cyclohexyl)-2H-pyrazol-3-yl]-3-methyl-piperidin-1-yl}-2-methyl-propan-1-one] was run?
Answer: Its Kd is under 0.3 µM.

Question: And the IC50 [2]?
Answer: The IC50 was under 0.3 µM.

Question: And the IC50 [3]?
Answer: Its IC50 is 0.3 to 3 µM.

Question: How did the Kd [1] turn out when C[C@@H]1CN(C(=O)[C@@](C)(O)C(F)(F)F)CC[C@@H]1c1ccnn1[C@H]1CC[C@H](O)CC1 [Compound A121, (R)-3,3,3-Trifluoro-2-hydroxy-1-{(3S,4S)-4-[2-(4-hydroxy-cyclohexyl)-2H-pyrazol-3-yl]-3-methyl-piperidin-1-yl}-2-methyl-propan-1-one] was run?
Answer: Its Kd is under 0.3 µM.

Question: What about the IC50 [2] of the same compound?
Answer: Its IC50 is under 0.3 µM.

Question: And the IC50 [3]?
Answer: The IC50 was 0.3 to 3 µM.

Question: Which results are given for C[C@@](O)(C(=O)N1CCC(c2cncn2-c2ccc(F)cc2)CC1)C(F)(F)F [Compound A124, (R)-3,3,3-Trifluoro-1-{4-[3-(4-fluoro-phenyl)-3H-imidazol-4-yl]-piperidin-1-yl}-2-hydroxy-2-methyl-propan-1-one]?
Answer: Kd [1]: < 0.3 µM; IC50 [2]: 0.3 to 3 µM; IC50 [3]: 0.3 to 3 µM

Question: Which results are given for C[C@@](O)(C(=O)N1CCC(c2cncn2-c2ccc(Cl)cc2)CC1)C(F)(F)F [Compound A125, (R)-1-{4-[3-(4-Chloro-phenyl)-3H-imidazol-4-yl]-piperidin-1-yl}-3,3,3-trifluoro-2-hydroxy-2-methyl-propan-1-one]?
Answer: Kd [1]: < 0.3 µM; IC50 [2]: 0.3 to 3 µM; IC50 [3]: 0.3 to 3 µM

Question: What does the source list for C[C@@](O)(C(=O)N1CCC(c2cncn2-c2ccc(Cl)cc2F)CC1)C(F)(F)F [Compound A126, (R)-1-{4-[3-(4-Chloro-2-fluoro-phenyl)-3H-imidazol-4-yl]-piperidin-1-yl}-3,3,3-trifluoro-2-hydroxy-2-methyl-propan-1-one]?
Answer: Kd [1]: < 0.3 µM; IC50 [2]: < 0.3 µM; IC50 [3]: 0.3 to 3 µM

Question: Which results are given for C[C@@](O)(C(=O)N1CCC(c2cncn2-c2ccc(C(F)(F)F)cc2)CC1)C(F)(F)F [Compound A127, (R)-3,3,3-Trifluoro-2-hydroxy-2-methyl-1-{4-[3-(4-trifluoromethyl-phenyl)-3H-imidazol-4-yl]-piperidin-1-yl}-propan-1-one]?
Answer: Kd [1]: < 0.3 µM; IC50 [2]: 0.3 to 3 µM; IC50 [3]: 0.3 to 3 µM

Question: How did the Kd [1] turn out when C[C@@](O)(C(=O)N1CCC(c2conc2-c2ccccc2)CC1)C(F)(F)F [Compound A128, (R)-3,3,3-Trifluoro-2-hydroxy-2-methyl-1-[4-(3-phenyl-isoxazol-4-yl)-piperidin-1-yl]-propan-1-one] was run?
Answer: Its Kd is under 0.3 µM.

Question: And the IC50 [2]?
Answer: Its IC50 is 0.3 to 3 µM.

Question: What about the IC50 [3] of the same compound?
Answer: Its IC50 is 3 to 50 µM.

Question: For C[C@@](O)(C(=O)N1CCC(c2conc2-c2ccc(F)cc2)CC1)C(F)(F)F [Compound A129, (R)-3,3,3-Trifluoro-1-{^4-[3-(4-fluoro-phenyl)-isoxazol-4-yl]-piperidin-1-yl}-2-hydroxy-2-methyl-propan-1-one], which Kd [1] is on record?
Answer: The Kd was under 0.3 µM.

Question: And the IC50 [2]?
Answer: Its IC50 is 0.3 to 3 µM.

Question: And the IC50 [3]?
Answer: The IC50 was 3 to 50 µM.

Question: With C[C@@](O)(C(=O)N1CCC(c2cncn2-c2ccc(F)cc2F)CC1)C(F)(F)F [Compound A130, (R)-1-{4-[3-(2,4-Difluoro-phenyl)-3H-imidazol-4-yl]-piperidin-1-yl}-3,3,3-trifluoro-2-hydroxy-2-methyl-propan-1-one] as the compound, how does the Kd [1] read?
Answer: Its Kd is under 0.3 µM.

Question: What about the IC50 [2] of the same compound?
Answer: Its IC50 is 0.3 to 3 µM.

Question: And the IC50 [3]?
Answer: The IC50 was 0.3 to 3 µM.

Question: For COc1ccc(-n2cncc2C2CCN(C(=O)[C@@](C)(O)C(F)(F)F)CC2)cc1 [Compound A131, (R)-3,3,3-Trifluoro-2-hydroxy-1-{4-[3-(4-methoxy-phenyl)-3 H-imidazol-4-yl]-piperidin-1-yl}-2-methyl-propan-1-one], which Kd [1] is on record?
Answer: Its Kd is under 0.3 µM.

Question: And the IC50 [2]?
Answer: Its IC50 is 0.3 to 3 µM.

Question: What about the IC50 [3] of the same compound?
Answer: The IC50 was 0.3 to 3 µM.
